Experiments:
1G4 TCR [1] = tested on: 1G4 TCR; design: method as in Robert et al, 2012; conditions: ref Robert et al, 2012; cited from earlier work
1G4 TCR [2] = assay: Laminar flow chamber (LFC) assay, 1G4 TCR-coated beads over pMHC surface; conditions: for force sensitivity parameter xβ, 1G4 TCR: Bell's model fit of off-rates under force (survival at 1 s, corrected for non-specific binding), forces < 120 pN, 6–10 independent experiments combined; for force sensitivity parameter xβ, 1G4 TCR / zero-force off-rate (k0off) from Bell's model, 1G4 TCR: cell-free; for force sensitivity parameter xβ, 1G4 TCR / bond type at forces < 20 pN, 1G4 TCR / bond type under force, 1G4 TCR / zero-force off-rate (k0off) from Bell's model, 1G4 TCR / off-rate: 37°C; for bond type at forces < 20 pN, 1G4 TCR / bond type under force, 1G4 TCR: LFC; for bond type under force, 1G4 TCR: purified TCR; for zero-force off-rate (k0off) from Bell's model, 1G4 TCR: extrapolated from off-rates under force (survival at 1 s, corrected data); for off-rate: survival at 1 s, corrected data; for koff_0: source data of Fig 2E, 1G4 TCR, zero-force off-rate from Bell's model fit
Procedure: In this assay, beads coated with TCR flow over a low density of pMHC while a camera records bead motion (Fig 2A, Movie EV1). […] The duration of TCR/pMHC binding is determined by an automated image analysis algorithm that detects the duration of bead arrests.
We first confirmed that bead arrests were mediated by single bonds. […] These constraints limit the LFC to a range of flow velocities that translate into pulling forces between ~ 5–120 pN with the upper bound determined, in part, by the binding rate and strength of the specific TCR/pMHC interaction. Finally, survival distributions were generated using the duration of individual beads for each TCR/pMHC pair and corrected by the corresponding distribution of arrests without pMHC for each paired velocity. We focus on the first 5 s of the distribution because on longer timescales measurement of bead arrest is often interrupted by a collision from a second bead.
Glass slides were rinsed twice in absolute ethanol then washed in a “piranha” solution composed of 70% H2SO4, 15% water and 15% H2O2 for 10 min, then rinsed with 5 litres of deionized water. […] Glass slides were then mounted in a home‐made multi‐channel thermo‐regulated flow chamber device, forming nine independent chambers of 12 mm length and 2 × 0.250 mm^2 section. Each chamber was then filled with a biotinylated pMHC solution in PBS with 0.1% BSA at chosen concentration, using cascade dilution to deposit in our 9‐chambers apparatus 8 different amounts of pMHC plus one chamber as a negative control. Microspheres (Dynal M‐450 tosly‐activated, Thermo Fisher, France) were rinsed three time in a 0.1 M borate solution, then incubated in a 200 μg/ml solution of anti‐6xHis‐tag antibody (Bio‐Rad, MCA1396, clone AD1.1.10, RRID: AB322084) overnight under constant agitation. Microspheres were rinsed three time in PBS/0.1% BSA then incubated prior to each experiment in a 200 μg/ml solution of 6xHis‐tag TCR.
The device forming nine independent chambers on a common glass slide was thermo‐regulated at 37°C by water circulation, set on an inverted microscope with a 10× lens (Leica, Germany) with a digital CCD camera (UEye, IDS Germany), and chamber entry was connected to the piping. For each independent chamber, the automaton performed cycles, each cycle being an experiment for a given shear flow. The automaton repeated cycles of microspheres agitation, microspheres injection in the chamber, launch of movie recording at 50 frames per seconds with M‐JPEG on‐the‐fly compression, and flow at a given shear for 90 s. Shear value was automatically modified for each new cycle until all chosen shear conditions had been recorded. The chamber was manually disconnected and next chamber was connected, then automaton was re‐launched. Raw data are in the form of movies of microspheres motion. A software suite written in Java as ImageJ plug‐ins retrieves microspheres trajectories and then detects microspheres arrest events using a velocity threshold and record arrests number, arrests duration and distance travelled by sedimented microspheres.
Binding linear densities are calculated as the ratio of the number of arrests on the distance travelled by microspheres sedimented on the chamber surface. Specific binding densities are calculated by subtracting control linear binding density from assay linear binding density for a given shear condition. Duration of arrests was pooled for experiments sharing identical TCR and pMHC molecules, identical amount of pMHC on the surface and identical shear rate, to build survival curves of the arrests. […] Each TCR‐pMHC bond was measured in 8 to 12 independent experiments.

1G4 TCR [3] = conditions: solution affinity of NYE pMHC for 1G4 TCR used in Fig 4F; ref Pettmann et al, 2021; cited from earlier work
[4] = target: NYE 6V peptide presented on HLA-A*02:01; assay: SPR
[5] = target: NYE 3A peptide presented on HLA-A*02:01; assay: SPR
[6] = target: NYE 4D peptide presented on HLA-A*02:01; assay: SPR
[7] = target: NYE 3Y peptide presented on HLA-A*02:01; assay: SPR
[8] = target: NYE 6T peptide presented on HLA-A*02:01; assay: SPR
[9] = target: NYE 4E5E8E peptide presented on HLA-A*02:01; assay: SPR
[10] = target: Tax 5F peptide (printed ) presented on HLA-A*02:01 (human | HTLV-1); assay: SPR
[11] = target: Tax 7Q peptide presented on HLA-A*02:01 (human | HTLV-1); assay: SPR
[12] = target: Tax 7R peptide presented on HLA-A*02:01 (human | HTLV-1); assay: SPR
[13] = target: Tax 7T peptide presented on HLA-A*02:01 (human | HTLV-1); assay: SPR
[14] = target: Tax 5H peptide presented on HLA-A*02:01 (human | HTLV-1); assay: SPR

Q: Which “bond type under force at 25°C, 1G4 TCR” value (1G4 TCR [1]) does the source give for SLAMWITQV [NYE 3A] here?
A: canonical slip

Q: And the “force sensitivity parameter xβ, 1G4 TCR” value (1G4 TCR [2])?
A: -0.016 nm

Q: And the “bond type at forces < 20 pN, 1G4 TCR” value (1G4 TCR [2])?
A: slip bonds

Q: What about the “bond type under force, 1G4 TCR” value (1G4 TCR [2]) of the same substance?
A: did not display canonical slip or catch bonds

Q: What about the “zero-force off-rate (k0off) from Bell's model, 1G4 TCR” value (1G4 TCR [2]) of the same substance?
A: 0.42 s⁻¹

Q: For “SLLDWITQV [NYE 4D, NYE peptide variant presented on HLA-A*02:01 (pMHC), ligand of the 1G4 TCR]”, which “force sensitivity parameter xβ, 1G4 TCR” value (1G4 TCR [2]) is on record?
A: 0.03228 nm

Q: What about the off-rate (1G4 TCR [2]; Force 5.76043 pN) of the same substance?
A: 0.2871 s⁻¹

Q: And the off-rate (1G4 TCR [2]; Force 10.9915 pN)?
A: 0.9234 s⁻¹

Q: And the off-rate (1G4 TCR [2]; Force 35.7266 pN)?
A: 1.088 s⁻¹

Q: And the off-rate (1G4 TCR [2]; Force 49.679 pN)?
A: 0.8939 s⁻¹

Q: And the off-rate (1G4 TCR [2]; Force 66.9081 pN)?
A: 1.152 s⁻¹

Q: And the off-rate (1G4 TCR [2]; Force 92.3818 pN)?
A: 1.23 s⁻¹

Q: And the koff_0 (1G4 TCR [2])?
A: -0.1852

Q: What about the Kd (1G4 TCR [3]) of the same substance?
A: 140 µM

Q: For SLLEEITEV [NYE 4E5E8E], which “force sensitivity parameter xβ, 1G4 TCR” value (1G4 TCR [2]) is on record?
A: 0.06548 nm

Q: What about the off-rate (1G4 TCR [2]; Force 9.5329 pN) of the same substance?
A: 0.132 s⁻¹

Q: What about the off-rate (1G4 TCR [2]; Force 20.855 pN) of the same substance?
A: 0.181 s⁻¹

Q: And the off-rate (1G4 TCR [2]; Force 57.9236 pN)?
A: 0.5269 s⁻¹

Q: And the off-rate (1G4 TCR [2]; Force 74.4128 pN)?
A: 0.6611 s⁻¹

Q: And the off-rate (1G4 TCR [2]; Force 98.8295 pN)?
A: 0.7569 s⁻¹

Q: What about the koff_0 (1G4 TCR [2]) of the same substance?
A: -0.7399

Q: With “SLLMWTTQV [NYE 6T, NYE peptide variant presented on HLA-A*02:01 (pMHC), ligand of the 1G4 TCR]” as the substance, how does the “bond type under force at 25°C, 1G4 TCR” value (1G4 TCR [1]) read?
A: catch bonds

Q: And the “force sensitivity parameter xβ, 1G4 TCR” value (1G4 TCR [2])?
A: 0.019 nm

Q: And the “bond type at forces < 20 pN, 1G4 TCR” value (1G4 TCR [2])?
A: slip bonds

Q: What about the “bond type under force, 1G4 TCR” value (1G4 TCR [2]) of the same substance?
A: did not display canonical slip or catch bonds

Q: What about the “zero-force off-rate (k0off) from Bell's model, 1G4 TCR” value (1G4 TCR [2]) of the same substance?
A: 0.87 s⁻¹

Q: And the Kd (1G4 TCR [3])?
A: 162 µM

Q: For SLLMWVTQV [NYE 6V], which “force sensitivity parameter xβ, 1G4 TCR” value (1G4 TCR [2]) is on record?
A: 0.08939 nm

Q: And the off-rate (1G4 TCR [2]; Force 4.03 pN)?
A: 0.1923 s⁻¹

Q: What about the off-rate (1G4 TCR [2]; Force 10.0633 pN) of the same substance?
A: 0.2976 s⁻¹

Q: What about the off-rate (1G4 TCR [2]; Force 34.1225 pN) of the same substance?
A: 0.9589 s⁻¹

Q: And the off-rate (1G4 TCR [2]; Force 53.3785 pN)?
A: 1.216 s⁻¹

Q: What about the off-rate (1G4 TCR [2]; Force 71.3475 pN) of the same substance?
A: 1.468 s⁻¹

Q: For SLYMWITQV [NYE 3Y], which “force sensitivity parameter xβ, 1G4 TCR” value (1G4 TCR [2]) is on record?
A: 0.06402 nm

Q: What about the off-rate (1G4 TCR [2]; Force 4.46758 pN) of the same substance?
A: 0.1572 s⁻¹

Q: What about the off-rate (1G4 TCR [2]; Force 11.986 pN) of the same substance?
A: 0.462 s⁻¹

Q: What about the off-rate (1G4 TCR [2]; Force 24.9875 pN) of the same substance?
A: 0.9162 s⁻¹

Q: And the off-rate (1G4 TCR [2]; Force 50.6303 pN)?
A: 1.043 s⁻¹

Q: What about the off-rate (1G4 TCR [2]; Force 74.2014 pN) of the same substance?
A: 1.215 s⁻¹

Q: For “Soluble 1G4 TCR (from UniProt P01848 1-93; A0A5B9 1-129)”, which Kd [4] is on record?
A: 17 µM

Q: What about the Kd [5] of the same substance?
A: 7 µM

Q: And the Kd [6]?
A: 139 µM

Q: What about the Kd [7] of the same substance?
A: 55 µM

Q: What about the Kd [8] of the same substance?
A: 161 µM

Q: What about the Kd [9] of the same substance?
A: 17 µM

Q: For “Soluble A6 TCR (from UniProt P01848 1-93; A0A5B9 1-129)”, which Kd [10] is on record?
A: 3 µM

Q: And the Kd [11]?
A: 37 µM

Q: What about the Kd [12] of the same substance?
A: 21 µM

Q: What about the Kd [13] of the same substance?
A: 3 µM

Q: What about the Kd [14] of the same substance?
A: 56 µM

— publication PMC10068313, “Mechanical forces impair antigen discrimination by reducing differences in T‐cell receptor/peptide–MHC off‐rates” (The EMBO Journal, 2022)
